# No end group written: not given here.
# Columns and labels:
# [1] = system: CXCR4; details: cited from earlier work
# Source text: Nevertheless, challenges still exist in clinical applications. […] In addition, it is known that existing pep ...
# [2] = system: 4T1 tumors; test: 4T1 breast cancer model in BALB/c mice; type: in vivo; details: day 33 after inoculation; E5 40 mg kg^-1 s.c. every other day; PTX 8 mg kg^-1 i.p. once a week; n=9
# Experimental: For animal experiments, 1×10^6 4T1 cells were orthotopically inoculated into the right fourth mammary fat pat of BALB/c mice. Seven days after inoculation, the mice were randomized in six groups (n=9 for each group): the control group, the E5 (40 mg kg^−1) group, the chemotherapeutic drug groups (cyclophosphamide (CTX, 90 mg kg^−1) or paclitaxel (PTX, 8 mg kg^−1)), and a group consisting of E5 combined with one of the drugs. E5 solution was subcutaneously injected around solid tumors every other day, and drugs were intraperitoneally injected once a week. The control tumor-bearing mice were treated an equal volume of solvent. The tumor sizes were measured every four days with a caliper. Tumor volume was calculated according to the formula: V=(a×b^2)/2, where a and b are the maximal and minimal diameter in millimeters, respectively. On day 33 after cell injection, the mice were killed by cervical dislocation. The tumors and main organs from each group were weighed immediately after dissection and preserved at −80 °C for further analysis.
# [3] = system: HUVECs; test: CCK-8 cell viability assay; type: cell-based, human; details: E5 concentrations up to 100 μM, 24 h
# [4] = system: 4T1 cells; test: Drug sensitivity under CXCL12 stimulus or conditional medium (CCK-8); type: cell-based, murine; details: E5 10 μM; MS-5 conditional medium or medium with 200 ng ml^-1 CXCL12; paclitaxel 4, 20, 100 nM, elemene 10, 20, 40 mg l^-1, cisplatin 2, 4, 8 μM; 24 h
# Experimental: Briefly, 1×10^4 4T1 cells were pre-seeded in 96-well culture plates and incubated overnight. Then, the cells were treated with 10 μM E5 in serum-free medium for 2 h, followed by the addition of either complete medium with 200 ng ml^−1 CXCL12 or conditional medium obtained from 48 h of incubation with MS-5 cells for an additional 4 h of treatment. After that, the cells were incubated the chemotherapeutic drugs paclitaxel (4, 20 and 100 nM), elemene (10, 20 and 40 mg l^−1), or cisplatin (2, 4 and 8 μM) for an additional 24 h. The 4T1 cell viability was analyzed using the CCK-8 assay. The absorbance value of 4T1 cells in the absence of drug treatment was set as 100%.
# [5] = E5 every other day in healthy BALB/c mice; cited from earlier work
# Experimental: (§1) The cytotoxicity of blocking CXCR4 with antagonists depends on the concentration and the cell types. For instance, CXCR4 antagonist BKT140 could induce 15–35% cell death at 4 or 8 μM. When its concentration was high as 20 μM, the cell death rate was about 60%.[35]
# [6] = system: multiple acute myeloid leukemia cell lines; details: E5 below 30 μM; cited from earlier work
# Experimental: as §1
# [7] = in vivo; cited from earlier work
molecule,measurement,setting,value
"c1cc(CN2CCCNCCNCCCNCC2)ccc1CN1CCCNCCNCCCNCC1 [AMD3100, Plerixafor]",agonist activity,[1],weak partial agonist activity
"CC(=O)O[C@H]1C(=O)[C@@]2(C)[C@H]([C@H](OC(=O)c3ccccc3)[C@]3(O)C[C@H](OC(=O)[C@H](O)[C@@H](NC(=O)c4ccccc4)c4ccccc4)C(C)=C1C3(C)C)[C@]1(OC(C)=O)CO[C@@H]1C[C@@H]2O [PTX, paclitaxel]",effect on tumor weight compared with the control group,[2],did not show a significant inhibitory effect
GGRSFFLLRRIQGCRFRNTVDD [E5],cytotoxicity to HUVECs,[3],did not show obvious cytotoxicity
same,"effect on cytotoxic effects of paclitaxel, elemene and cisplatin to 4T1",[4],could enhance the cytotoxic effects
same,"side effects (organs weight, serum clinical parameters, H&E of heart, kidney, lung, spleen)",[5],did not show detectable side effects
same,direct induction of cell death,[6],did not induce cell death directly
LY2510924,half-life,[7],3 to 5 h

# Reference: publication PMC5661635, “Targeting the CXCR4/CXCL12 axis with the peptide antagonist E5 to inhibit breast tumor progression” (Signal Transduction and Targeted Therapy, 2017)
